Test results from patent US20240067657A1, “AMIDO-SUBSTITUTED PYRIDYL COMPOUNDS AND METHODS OF USE THEREOF FOR THE TREATMENT OF HERPESVIRUSES” (Merck Sharp & Dohme LLC, priority 2020, published 2024).
Where two headings read alike, the source gives them in different places.

How the values were obtained:
[1] = test system: VZV in MeWo or MRC5 cells; experiment: Viral qPCR assay VZV (V0/V1, V2/V3), EC50; assay type: cell-based; settings: Human alphaherpesvirus 3, MRC5, MRC5 cells, 10%; read-out: VZV Cell (EC50) MRC5 10%
Experimental: (§1) Viral qPCR Assays (V0/V1)
(§2) MRC5 cells, Vero cells, and MeWo cells were obtained from ATCC and were maintained at 37° C./5% CO2/90% relative humidity in Minimal Essential Medium with 10% fetal bovine serum, […] L-glutamine, 100 units/ml penicillin and 100 ug/ml streptomycin. Assay plates were prepared by dispensing compounds dissolved in DMSO into wells of 384 well collagen-coated plates using an ECHO acoustic dispenser. Each compound was tested in a 10-point, serial 3-fold dilution. Controls included uninfected cells and infected cells treated only with DMSO. Assays were initiated by mixing selected cells, in suspension, with virus, and dispensing 50 μl/well infected cells to pre-plated compounds. Plates were incubated at 37° C./5% CO2/90% relative humidity for ˜72 hrs to permit genomic replication, and infected cells were lysed by the addition of an equal volume of lysis buffer (10 mM Tris-HCl, pH8, 50 mM KCl, 2 mM MgCl2, 0.45% NP-40, 0.45% Tween-20, and 100 μg/ml proteinase K). An aliquot of the lysate was transferred to a 384-well PCR plate and incubated at 56° C. for 1 hour and then at 95° C. for 10 min. Levels of a viral gene and of the cellular control, PPIA (Thermo Fisher Assay ID=Hs04194521_s1), were measured in separate 10 μL qPCR assays using TaqMan® Gene Expression Master Mix (Applied Biosystems), and an 7900HT Fast Real-Time PCR System with 384-Well Block Module. 7-point, serial 10-fold dilutions of a plasmid standard were run on each plate to generate a standard curve, and genome copies numbers were calculated by plotting experimental Ct onto linear regression of the standard curve. Viral genome copy numbers were normalized by cellular control copy number, and compound effects were normalized to the window defined by the controls. Calculated % effects were fit using a 4-parameter algorithm, and EC50 was reported.
(§3) Viral qPCR Assays (V2/V3)
as §2, with “gene” for “gene and of the cellular control, PPIA (Thermo Fisher Assay ID=Hs04194521_s1),”, “in” for “in separate”, “Compound effects on viral” for “Viral”, “number” for “numbers were normalized by cellular control copy number, and compound effects”, “reported. • HCMV: Strain AD169 Street was assayed in MRC-5 cells and was used at 0.05-0.1 pfu/cell. The assays were performed in either growth media or in the same media with 50% fetal bovine serum. Primer-probe set was Thermo Fisher Assay ID=AIFATFK. • VZV: Strain Street was maintained as an infected cell stock in MRC-5 cells. It was assayed in MeWo or MRC5 cells and was used at 0.04-0.1 pfu/cell. […]” for “reported.”

[2] = target: T1, Human cytomegalovirus DNA polymerase (Human cytomegalovirus, UniProt P08546); experiment: HCMV polymerase assay (AlphaLISA, IC50); assay type: biochemical; settings: polymerase assay of Example 190
T1 construct: made in house; host or cells: SF21 insect cells (baculovirus vector)
T1 sequence (P08546 whole entry): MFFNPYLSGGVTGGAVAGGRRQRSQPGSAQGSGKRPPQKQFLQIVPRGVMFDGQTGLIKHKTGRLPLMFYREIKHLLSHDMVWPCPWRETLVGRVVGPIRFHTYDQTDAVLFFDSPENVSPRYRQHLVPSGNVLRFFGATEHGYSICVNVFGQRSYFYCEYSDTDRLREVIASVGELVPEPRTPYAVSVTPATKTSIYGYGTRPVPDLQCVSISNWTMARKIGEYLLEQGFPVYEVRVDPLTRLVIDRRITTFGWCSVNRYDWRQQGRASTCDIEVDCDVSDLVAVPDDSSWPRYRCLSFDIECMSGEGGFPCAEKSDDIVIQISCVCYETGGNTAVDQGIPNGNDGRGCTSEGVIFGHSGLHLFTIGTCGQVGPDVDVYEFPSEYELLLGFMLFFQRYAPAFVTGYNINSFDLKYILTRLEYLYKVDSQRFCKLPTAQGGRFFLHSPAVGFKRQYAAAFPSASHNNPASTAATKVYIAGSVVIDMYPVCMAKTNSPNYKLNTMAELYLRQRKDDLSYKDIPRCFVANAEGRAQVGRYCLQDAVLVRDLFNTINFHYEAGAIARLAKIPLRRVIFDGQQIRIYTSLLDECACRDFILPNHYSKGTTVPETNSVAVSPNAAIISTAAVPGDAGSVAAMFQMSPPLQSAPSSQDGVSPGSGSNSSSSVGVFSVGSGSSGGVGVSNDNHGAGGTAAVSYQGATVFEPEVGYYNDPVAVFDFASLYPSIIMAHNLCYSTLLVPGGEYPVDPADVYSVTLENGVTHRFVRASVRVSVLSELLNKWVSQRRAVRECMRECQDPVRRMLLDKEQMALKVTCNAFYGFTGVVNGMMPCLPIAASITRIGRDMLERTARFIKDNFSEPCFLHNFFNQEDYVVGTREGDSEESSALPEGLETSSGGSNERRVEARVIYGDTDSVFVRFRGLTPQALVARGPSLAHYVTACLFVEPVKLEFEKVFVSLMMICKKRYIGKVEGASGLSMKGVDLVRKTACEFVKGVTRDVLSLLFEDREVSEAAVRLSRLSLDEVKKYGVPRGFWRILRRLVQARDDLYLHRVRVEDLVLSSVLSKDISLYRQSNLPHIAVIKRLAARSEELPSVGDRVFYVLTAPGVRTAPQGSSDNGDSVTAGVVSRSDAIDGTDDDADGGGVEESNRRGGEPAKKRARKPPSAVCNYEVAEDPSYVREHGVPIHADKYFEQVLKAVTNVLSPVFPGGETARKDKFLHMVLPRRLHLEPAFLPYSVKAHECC
Experimental: Human cytomegalovirus and varicella zoster virus DNA polymerases were expressed via baculovirus vector in SF21 cells and purified. Heterodimeric nucleic acid substrate used in the herpesvirus polymerase reactions was generated by annealing a 59-mer template to a 17-mer digoxigenin-labeled primer. Polymerase (HCMV final concentration of 0.2 nM; VZV final concentration of 0.4 nM) was combined with an inhibitor compound or DMSO in assay buffer (10 mM HEPES, pH 7.5, 25 mM KCl, 25 mM NaCl, 5 mM MgCl2, 5% glycerol, 0.67 mg/ml bovine serum albuminutes, and 1 mM tris(2-carboxyethyl)phosphine), and this mixture was pre-incubated for 30 minutes at room temperature in 384-well microtiter plates. The polymerization reaction was initiated by the addition of template/primer substrate (final concentration: 1.6 nM), and dNTPs (final concentration: 24 nM dCTP, 24 nMdGTP, 16 nM dATP, 16 nM dTTP, and 0.8 nM biotin-dUTP). After 60 minutes incubation at 37° C., reactions were terminated with quench buffer (25 mM HEPES pH 7.5, 100 mM NaCl, 0.25% Tween-20, 12 mM EDTA, and 1 mg/ml bovine serum albumin). Incorporation of biotinylated UTP was detected with 2.5-5 ug/ml anti-DIG AlphaLISA acceptor beads and 5-10 ug/ml streptavidin AlphaLISA donor beads (Perkin Elmer). Compound effects were normalized to the window defined by the controls (DMSO only and pre-quenched wells), and were fit using a 4-parameter algorithm to report an IC50.

[3] = test system: HCMV Strain AD169 in MRC-5 cells; experiment: Viral qPCR assay HCMV (V0/V1, V2/V3), EC50; assay type: cell-based
Experimental: as §1, §2, §3
as §2, with “gene” for “gene and of the cellular control, PPIA (Thermo Fisher Assay ID=Hs04194521_s1),”, “in” for “in separate”, “Compound effects on viral” for “Viral”, “number” for “numbers were normalized by cellular control copy number, and compound effects”, “reported. • HCMV: Strain AD169 Street was assayed in MRC-5 cells and was used at 0.05-0.1 pfu/cell. The assays were performed in either growth media or in the same media with 50% fetal bovine serum. Primer-probe set was Thermo Fisher Assay ID=AIFATFK. • VZV: Strain Street was maintained as an infected cell stock in MRC-5 cells. It was assayed in MeWo or MRC5 cells and was used at 0.04-0.1 pfu/cell. […]” for “reported.”

[4] = test system: HSV-1 Strain F in Vero or MRC5 cells; experiment: Viral qPCR assay HSV-1 (V0/V1, V2/V3), EC50; assay type: cell-based; settings: Human alphaherpesvirus 1, MRC5, MRC5 cells, 10%; read-out: HSV1 Cell (EC50) MRC5 10%
Experimental: as §1, §2, §3
as §2, with “gene” for “gene and of the cellular control, PPIA (Thermo Fisher Assay ID=Hs04194521_s1),”, “in” for “in separate”, “Compound effects on viral” for “Viral”, “number” for “numbers were normalized by cellular control copy number, and compound effects”, “reported. • HCMV: Strain AD169 Street was assayed in MRC-5 cells and was used at 0.05-0.1 pfu/cell. The assays were performed in either growth media or in the same media with 50% fetal bovine serum. Primer-probe set was Thermo Fisher Assay ID=AIFATFK. • VZV: Strain Street was maintained as an infected cell stock in MRC-5 cells. It was assayed in MeWo or MRC5 cells and was used at 0.04-0.1 pfu/cell. […]” for “reported.”

[5] = Human betaherpesvirus 5, AD169, MRC5, viral qPCR assay of Example 191, read-out: HCMV Cell (EC50)

Structure (SMILES)	EC50 [1] [nM]	IC50 [2] [nM]	EC50 [3, 5] [nM]	EC50 [4] [nM]	EC50 ([3]; Human betaherpesvirus 5, AD169, MRC5, read-out: HCMV Cell (EC50)) [nM]
CC(=O)N1CCC(Oc2cc(C(=O)NCc3ccc(Cl)cc3)ncc2-c2cnn(C)n2)CC1 [Compound 7]	707	122	552	530	–
Cc1cc(-c2cnc(C(=O)NCc3ccc(Cl)cc3)cc2O[C@H]2CCN3C(=O)OC[C@@H]3C2)sn1 [Compound 23]	59.6	1.16	102	25.7	–
CC(=O)N1CCC(Oc2cc(C(=O)NCc3ccc(Cl)cc3)ncc2-c2cnsc2)CC1 [Compound 47]	–	136	1160	–	–
CC(=O)N1CCC(Oc2cc(C(=O)NCc3ccc(Cl)cc3)ncc2-c2cn(C)cn2)CC1 [Compound 50]	243	37.3	461	181	–
CC(=O)N1CCC(Oc2cc(C(=O)NCc3ccc(Cl)cc3)ncc2-c2cncs2)CC1 [Compound 51]	170	48.5	369	164	–
CC(=O)N1CCC(Oc2cc(C(=O)NCc3ccc(Cl)cc3)ncc2-c2cnoc2)CC1 [Compound 53]	–	56.5	1840	–	–
CC(=O)N1CCC(Oc2cc(C(=O)NCc3ccc(Cl)cc3)ncc2-c2cn(C)c(CCO)n2)CC1 [Compound 55]	–	65.4	781	–	–
CC(=O)N1CCC(Oc2cc(C(=O)NCc3ccc(Cl)cc3)ncc2-c2ccn(CS(C)(=O)=O)n2)CC1 [Compound 56]	1430	68.8	687	847	–
CC(=O)N1CCC(Oc2cc(C(=O)NCc3ccc(Cl)cc3)ncc2-c2cnsn2)CC1 [Compound 58]	–	155	1810	–	–
CC(=O)N1CCC(Oc2cc(C(=O)NCc3ccc(Cl)cc3)ncc2-c2cn(C)nn2)CC1 [Compound 59]	–	151	976	–	–
CC(=O)N1CCC(Oc2cc(C(=O)NCc3ccc(Cl)cc3)ncc2-c2ccsn2)CC1 [Compound 60]	–	197	1490	–	–
O=C(NCc1cc(F)c(Cl)c(F)c1)c1cc(O[C@H]2CCN3C(=O)OC[C@@H]3C2)c(-c2cnn(C(F)F)c2)cn1 [Compound 80]	401	8.76	248	247	–
O=C(NCc1ccc(Br)cc1)c1cc(O[C@H]2CCN3C(=O)OC[C@@H]3C2)c(-c2cnn(C(F)F)c2)cn1 [Compound 83]	147	12	549	274	–
O=C(NCc1ccc(Cl)cc1Cl)c1cc(O[C@H]2CCN3C(=O)OC[C@@H]3C2)c(-c2cnn(C(F)F)c2)cn1 [Compound 85]	4710	65.3	888	1640	–
C#Cc1ccc(CNC(=O)c2cc(O[C@H]3CCN4C(=O)OC[C@@H]4C3)c(-c3cnn(C(F)F)c3)cn2)cc1 [Compound 88]	1180	184	616	785	–
O=C(NCc1ccc(I)cc1)c1cc(O[C@H]2CCN3C(=O)OC[C@@H]3C2)c(-c2cnn(C(F)F)c2)cn1 [Compound 89]	–	187	1520	–	–
O=C(NCc1ccc(Cl)c(F)c1F)c1cc(O[C@H]2CCN3C(=O)OC[C@@H]3C2)c(-c2cnn(C(F)F)c2)cn1 [Compound 92]	339	10.3	227	200	–
Cc1cnc(C(=O)NCc2ccc(Cl)cc2)cc1OC1CCC(=O)N(C)CC1 (stereo not drawn) [Compound 99]	–	407	4010	–	–
O=C(NCc1ccc(C(F)(F)F)cc1)c1cc(O[C@H]2CCN3C(=O)OC[C@@H]3C2)c(-c2cnn(C(F)F)c2)cn1 [Compound 104]	–	273	5980	–	–
O=C(NCc1ccc(Cl)cc1)c1cc(O[C@H]2CCN3C(=O)OC[C@@H]3C2)c(N2CCOCC2)cn1 [Compound 116]	3600	84.8	791	2420	–
O=C(NCc1ccc(Cl)cc1)c1cc(O[C@H]2CCN3C(=O)OC[C@@H]3C2)c(N2CC3(CC(O)C3)C2)cn1 [Compound 118]	–	38.8	579	–	–
CC(C)(N)C1CCN(c2cnc(C(=O)NCc3ccc(Cl)cc3)cc2O[C@H]2CCN3C(=O)OC[C@@H]3C2)C1 (stereo partly drawn) [Compound 119]	–	65.2	747	–	–
CC(C)(O)C1CN(c2cnc(C(=O)NCc3ccc(Cl)cc3)cc2O[C@H]2CCN3C(=O)OC[C@@H]3C2)C1 [Compound 121]	–	36.5	257	–	–
CC(C)(O)C12CC(C1)N(c1cnc(C(=O)NCc3ccc(Cl)cc3)cc1O[C@H]1CCN3C(=O)OC[C@@H]3C1)C2 [Compound 123]	–	160	1310	–	–
C[C@@H]1CN(c2cnc(C(=O)NCc3ccc(Cl)cc3)cc2O[C@H]2CCN3C(=O)OC[C@@H]3C2)C[C@H](C)[C@]1(C)O [Compound 124]	6050	172	1270	2850	–
CS(=O)(=O)c1cnc(C(=O)NCc2ccc(Cl)cc2)cc1O[C@H]1CCN2C(=O)OC[C@@H]2C1 [Compound 147]	–	804	12700	–	–
CC(=O)N1CCC(Oc2cc(C(=O)NCc3ccc(Cl)cc3)ncc2-c2cnn(C(F)F)c2)CC12CC2 (stereo not drawn) [Compound 160]	–	135	1400	–	–
C[C@@H]1CN(C)CCN1c1cc(C(=O)NCc2ccc(Cl)cc2)nc(-c2cnn(CCO)c2)c1 [Compound 177]	–	601	–	–	1410
COCCOC(=O)N(Cc1ccc(Cl)cc1)C(=O)c1cc(O[C@H]2CCN3C(=O)OC[C@@H]3C2)c(-c2cnn(C(F)F)c2)cn1 [Compound 179]	–	107	1390	–	–
CN1CCC(C(=O)OCN(Cc2ccc(Cl)cc2)C(=O)c2cc(O[C@H]3CCN4C(=O)OC[C@@H]4C3)c(-c3cnn(C(F)F)c3)cn2)CC1 [Compound 183]	–	201	150	–	–
